# “And” between values parts separate entries of the source, which are not always exact repeats. Identical values can stand only once.
# Assay: Biodistribution studies of 11C tracers
# Assay type: in vivo, Wistar rats
# Conditions: for SUV Blood / SUV Cerebellum / SUV Cerebrum total / SUV Cortex / SUV Hippocampus / SUV Striatum: normalized for body weight; for % ID present in the carcass: at all time points examined
# Procedure: Biodistribution studies were carried out in healthy male Wistar rats (body weight 200-450 g) at 2 min, 30 min and 60 min post injection (p.i.) (n=3/time point). Rats were injected with about 11 MBq (2 min, 30 min analysis) or 22 MBq (60 min analysis) of the tracer via tail vein under anesthesia (2.5% isoflurane in O2 at 1 L/min flow rate) and sacrificed by decapitation at above specified time points. Blood and major organs were collected in tared tubes and weighed. The radioactivity in blood, organs and other body parts was measured using an automated gamma counter. The distribution of radioactivity in different parts of the body at different time points p.i. of the tracer was calculated and expressed as percentage of injected dose (% ID), and as percentage of injected dose per gram tissue (% ID/g) for the selected organs. % ID is calculated as cpm in organ/total cpm recovered. For calculation of total radioactivity in blood, blood mass was assumed to be 7% of the body mass.
smiles,measurement,setting,value
"[11CH3]Oc1c(F)ccc(F)c1C1CCN(c2ccn3c(CC4CC4)nnc3c2C(F)(F)F)CC1 [[^11C]B-3, 3-(cyclopropylmethyl)-7-[4-[3,6-difluoro-2-[^11C]methoxyphenyl]-1-piperidinyl]-8-(trifluoromethyl)-1,2,4-triazolo[4,3-a]pyridine]",% ID Blood,2 min p.i.,8.5 % ID and 8.5 ± 1.9 % ID
same,% ID Carcass,2 min p.i.,36.0 ± 0.7 % ID
same,% ID Cerebellum,2 min p.i.,0.17 % ID and 0.165 ± 0.009 % ID
same,% ID Cerebrum total,2 min p.i.,0.54 % ID and 0.536 ± 0.048 % ID
same,% ID Cortex,2 min p.i.,0.062 ± 0.009 % ID
same,% ID Heart,2 min p.i.,4.8 ± 0.4 % ID
same,% ID Hippocampus,2 min p.i.,0.017 ± 0.002 % ID
same,% ID Intestines,2 min p.i.,9.4 ± 0.8 % ID
same,% ID Kidneys,2 min p.i.,8.8 ± 0.7 % ID
same,% ID Liver,2 min p.i.,28.7 ± 2.1 % ID
same,% ID Lungs,2 min p.i.,3.7 ± 1.7 % ID
same,% ID Rest of cerebrum,2 min p.i.,0.457 ± 0.050 % ID
same,% ID Spleen + Pancreas,2 min p.i.,2.0 ± 0.1 % ID
same,% ID Stomach,2 min p.i.,1.5 ± 0.4 % ID
same,% ID Striatum,2 min p.i.,0.028 ± 0.002 % ID
same,% ID Urine,2 min p.i.,0.1 ± 0.0 % ID
same,Total brain uptake,2 min p.i.,0.75 % ID and 0.75 ± 0.0 % ID
same,SUV Blood,2 min p.i.,1.20 ± 0.03
same,SUV Cerebellum,2 min p.i.,1.54 and 1.54 ± 0.01
same,SUV Cerebrum total,2 min p.i.,1.09 ± 0.01
same,SUV Cortex,2 min p.i.,1.03 ± 0.00
same,SUV Hippocampus,2 min p.i.,0.85 ± 0.01
same,SUV Striatum,2 min p.i.,0.99 ± 0.00
same,% ID Blood,30 min p.i.,2.6 ± 0.7 % ID
same,% ID Carcass,30 min p.i.,46.7 ± 7.8 % ID
same,% ID Cerebellum,30 min p.i.,0.142 ± 0.042 % ID
same,% ID Cerebrum total,30 min p.i.,0.489 ± 0.121 % ID
same,% ID Cortex,30 min p.i.,0.071 ± 0.031 % ID
same,% ID Heart,30 min p.i.,1.7 ± 0.7 % ID
same,% ID Hippocampus,30 min p.i.,0.019 ± 0.006 % ID
same,% ID Intestines,30 min p.i.,8.9 ± 1.4 % ID
same,% ID Kidneys,30 min p.i.,3.4 ± 1.0 % ID
same,% ID Liver,30 min p.i.,31.3 ± 9.7 % ID
same,% ID Lungs,30 min p.i.,0.5 ± 0.2 % ID
same,% ID Rest of cerebrum,30 min p.i.,0.373 ± 0.084 % ID
same,% ID Spleen + Pancreas,30 min p.i.,1.1 ± 0.3 % ID
same,% ID Stomach,30 min p.i.,3.8 ± 1.4 % ID
same,% ID Striatum,30 min p.i.,0.027 ± 0.007 % ID
same,% ID Urine,30 min p.i.,0.5 ± 0.1 % ID
same,Total brain uptake,30 min p.i.,0.64 ± 0.2 % ID
same,SUV Blood,30 min p.i.,0.40 ± 0.01
same,SUV Cerebellum,30 min p.i.,1.54 and 1.54 ± 0.04
same,SUV Cerebrum total,30 min p.i.,1.11 ± 0.03
same,SUV Cortex,30 min p.i.,1.00 ± 0.03
same,SUV Hippocampus,30 min p.i.,0.84 ± 0.02
same,SUV Striatum,30 min p.i.,1.15 ± 0.04
same,% ID Blood,60 min p.i.,2.9 % ID and 2.9 ± 0.4 % ID
same,% ID Carcass,60 min p.i.,44.2 ± 10.9 % ID
same,% ID Cerebellum,60 min p.i.,0.142 ± 0.050 % ID
same,% ID Cerebrum total,60 min p.i.,0.499 ± 0.168 % ID
same,% ID Cortex,60 min p.i.,0.069 ± 0.027 % ID
same,% ID Heart,60 min p.i.,1.1 ± 0.6 % ID
same,% ID Hippocampus,60 min p.i.,0.023 ± 0.011 % ID
same,% ID Intestines,60 min p.i.,14.8 ± 1.7 % ID
same,% ID Kidneys,60 min p.i.,2.4 ± 0.9 % ID
same,% ID Liver,60 min p.i.,23.6 ± 12.9 % ID
same,% ID Lungs,60 min p.i.,0.7 ± 0.3 % ID
same,% ID Rest of cerebrum,60 min p.i.,0.371 ± 0.119 % ID
same,% ID Spleen + Pancreas,60 min p.i.,0.9 ± 0.3 % ID
same,% ID Stomach,60 min p.i.,9.6 ± 2.2 % ID
same,% ID Striatum,60 min p.i.,0.036 ± 0.014 % ID
same,% ID Urine,60 min p.i.,0.4 ± 0.1 % ID
same,% ID present in liver and intestines,60 min p.i.,38.4 % ID
same,% ID present in the urinary system,60 min p.i.,2.8 % ID
same,Total brain uptake,60 min p.i.,0.66 ± 0.2 % ID
same,SUV Blood,60 min p.i.,0.40 ± 0.01
same,SUV Cerebellum,60 min p.i.,1.84 ± 0.07
same,SUV Cerebrum total,60 min p.i.,1.38 ± 0.05
same,SUV Cortex,60 min p.i.,1.13 ± 0.04
same,SUV Hippocampus,60 min p.i.,1.11 ± 0.04
same,SUV Striatum,60 min p.i.,1.76 ± 0.07
same,% ID present in the carcass,,~42 % ID
"[11CH3]Oc1cccc(F)c1C1CCN(c2ccn3c(CC4CC4)nnc3c2Cl)CC1 [[^11C]B-6, 8-chloro-3-(cyclopropylmethyl)-7-[4-[2-fluoro-6-[^11C]methoxyphenyl]-1-piperidinyl]-1,2,4-triazolo[4,3-a]pyridine]",% ID Blood,2 min p.i.,6.5 % ID and 6.5 ± 0.9 % ID
same,% ID Carcass,2 min p.i.,43.5 ± 1.4 % ID
same,% ID Cerebellum,2 min p.i.,0.17 % ID and 0.170 ± 0.012 % ID
same,% ID Cerebrum total,2 min p.i.,0.45 % ID and 0.446 ± 0.073 % ID
same,% ID Cortex,2 min p.i.,0.068 ± 0.015 % ID
same,% ID Heart,2 min p.i.,4.1 ± 0.1 % ID
same,% ID Hippocampus,2 min p.i.,0.019 ± 0.000 % ID
same,% ID Intestines,2 min p.i.,7.6 ± 0.5 % ID
same,% ID Kidneys,2 min p.i.,6.8 ± 0.7 % ID
same,% ID Liver,2 min p.i.,30.2 ± 0.9 % ID
same,% ID Lungs,2 min p.i.,1.8 ± 0.5 % ID
same,% ID Rest of cerebrum,2 min p.i.,0.359 ± 0.086 % ID
same,% ID Spleen + Pancreas,2 min p.i.,1.4 ± 0.1 % ID
same,% ID Stomach,2 min p.i.,1.3 ± 0.2 % ID
same,% ID Striatum,2 min p.i.,0.022 ± 0.002 % ID
same,% ID Urine,2 min p.i.,0.1 ± 0.0 % ID
same,Total brain uptake,2 min p.i.,0.65 % ID and 0.65 ± 0.1 % ID
same,SUV Blood,2 min p.i.,0.90 ± 0.01
same,SUV Cerebellum,2 min p.i.,1.62 ± 0.00
same,SUV Cerebrum total,2 min p.i.,1.00 ± 0.02
same,SUV Cortex,2 min p.i.,1.04 ± 0.00
same,SUV Hippocampus,2 min p.i.,0.86 ± 0.01
same,SUV Striatum,2 min p.i.,1.01 ± 0.01
same,% ID Blood,30 min p.i.,2.9 ± 0.1 % ID
same,% ID Carcass,30 min p.i.,61.8 ± 2.1 % ID
same,% ID Cerebellum,30 min p.i.,0.201 ± 0.016 % ID
same,% ID Cerebrum total,30 min p.i.,0.723 ± 0.103 % ID
same,% ID Cortex,30 min p.i.,0.078 ± 0.020 % ID
same,% ID Heart,30 min p.i.,1.7 ± 0.2 % ID
same,% ID Hippocampus,30 min p.i.,0.028 ± 0.006 % ID
same,% ID Intestines,30 min p.i.,9.9 ± 1.4 % ID
same,% ID Kidneys,30 min p.i.,3.0 ± 0.4 % ID
same,% ID Liver,30 min p.i.,17.0 ± 1.1 % ID
same,% ID Lungs,30 min p.i.,0.8 ± 0.1 % ID
same,% ID Rest of cerebrum,30 min p.i.,0.580 ± 0.081 % ID
same,% ID Spleen + Pancreas,30 min p.i.,1.0 ± 0.2 % ID
same,% ID Stomach,30 min p.i.,2.3 ± 0.5 % ID
same,% ID Striatum,30 min p.i.,0.037 ± 0.005 % ID
same,% ID Urine,30 min p.i.,0.3 ± 0.1 % ID
same,Total brain uptake,30 min p.i.,0.95 ± 0.1 % ID
same,SUV Blood,30 min p.i.,0.40 ± 0.00
same,SUV Cerebellum,30 min p.i.,2.28 and 2.28 ± 0.01
same,SUV Cerebrum total,30 min p.i.,1.66 ± 0.02
same,SUV Cortex,30 min p.i.,1.47 ± 0.03
same,SUV Hippocampus,30 min p.i.,1.36 ± 0.01
same,SUV Striatum,30 min p.i.,1.70 ± 0.01
same,% ID Blood,60 min p.i.,3.6 % ID and 3.6 ± 0.2 % ID
same,% ID Carcass,60 min p.i.,57.8 ± 1.9 % ID
same,% ID Cerebellum,60 min p.i.,0.155 ± 0.024 % ID
same,% ID Cerebrum total,60 min p.i.,0.597 ± 0.062 % ID
same,% ID Cortex,60 min p.i.,0.074 ± 0.021 % ID
same,% ID Heart,60 min p.i.,1.0 ± 0.1 % ID
same,% ID Hippocampus,60 min p.i.,0.024 ± 0.003 % ID
same,% ID Intestines,60 min p.i.,12.0 ± 1.1 % ID
same,% ID Kidneys,60 min p.i.,1.9 ± 0.3 % ID
same,% ID Liver,60 min p.i.,18.6 ± 1.0 % ID
same,% ID Lungs,60 min p.i.,0.6 ± 0.1 % ID
same,% ID Rest of cerebrum,60 min p.i.,0.468 ± 0.054 % ID
same,% ID Spleen + Pancreas,60 min p.i.,0.8 ± 0.0 % ID
same,% ID Stomach,60 min p.i.,4.3 ± 1.8 % ID
same,% ID Striatum,60 min p.i.,0.031 ± 0.003 % ID
same,% ID Urine,60 min p.i.,0.6 ± 0.1 % ID
same,% ID present in liver and intestines,60 min p.i.,30.6 % ID
same,% ID present in the urinary system,60 min p.i.,2.5 % ID
same,Total brain uptake,60 min p.i.,0.76 ± 0.1 % ID
same,SUV Blood,60 min p.i.,0.50 ± 0.00
same,SUV Cerebellum,60 min p.i.,1.57 ± 0.01
same,SUV Cerebrum total,60 min p.i.,1.24 ± 0.01
same,SUV Cortex,60 min p.i.,1.01 ± 0.01
same,SUV Hippocampus,60 min p.i.,1.02 ± 0.01
same,SUV Striatum,60 min p.i.,1.46 ± 0.01
same,% ID present in the carcass,,~54 % ID

# Source: patent US20130230459A1, “RADIOLABELLED mGluR2 PET LIGANDS” (Janssen Pharmaceuticals, Inc., priority 2010, published 2013)
